Experimental data from PMC13110330, “Design, Synthesis, and Evaluation of New Polyhydroxylated B is‐Chalcones as Potential COX‐2 Selective Inhibitors” (Chemmedchem, 2026).

Experiments:
human recombinant COX‐1 = target: T1, human recombinant COX‐1 (Homo sapiens, UniProt P23219); assay: In vitro fluorometric COX‐1 inhibitory assay; type: biochemical; settings: mean ± SEM; for IC50: human recombinant enzyme
T1 construct: purchased Sigma Chemical Co. (St. Louis, MO, USA)
Protocol: The COX‐1/2 inhibitory potential of bis‐chalcones was assessed with an in vitro fluorometric assay, based on the protocol outlined by Sigma‐Aldrich in their COX‐2 Inhibitor Screening Kit.
To conduct the assay, human recombinant COX‐1 or COX‐2 (2.5 ng/µL) was combined with diluted hemin (1 µM), COX cofactor, and ampliflu red (100 µM) in assay buffer (trizma hydrochloride pH = 8.0 and EDTA 0.1 µM).

human recombinant COX‐2 = target: T2, human recombinant COX‐2 (Homo sapiens, UniProt P35354); assay: In vitro fluorometric COX‐2 inhibitory assay and selectivity index; type: biochemical; settings: for IC50: human recombinant enzyme
T2 construct: purchased Sigma Chemical Co. (St. Louis, MO, USA)
T2 sequence (P35354 18-604): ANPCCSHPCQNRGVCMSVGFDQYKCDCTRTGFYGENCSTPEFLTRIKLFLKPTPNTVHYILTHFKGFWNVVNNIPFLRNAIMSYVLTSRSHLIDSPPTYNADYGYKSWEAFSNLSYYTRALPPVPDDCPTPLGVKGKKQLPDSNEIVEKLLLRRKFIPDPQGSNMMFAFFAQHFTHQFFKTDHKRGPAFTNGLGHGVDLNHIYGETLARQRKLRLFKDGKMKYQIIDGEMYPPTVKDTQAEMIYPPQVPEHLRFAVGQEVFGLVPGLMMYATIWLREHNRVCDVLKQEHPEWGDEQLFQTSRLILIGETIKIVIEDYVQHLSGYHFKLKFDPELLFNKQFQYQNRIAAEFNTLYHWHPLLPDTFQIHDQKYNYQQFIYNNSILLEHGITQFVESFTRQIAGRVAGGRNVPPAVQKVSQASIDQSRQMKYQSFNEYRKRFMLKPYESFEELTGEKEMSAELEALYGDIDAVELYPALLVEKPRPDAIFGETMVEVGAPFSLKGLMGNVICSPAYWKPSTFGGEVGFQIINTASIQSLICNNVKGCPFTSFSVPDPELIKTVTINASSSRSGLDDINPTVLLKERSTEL

COX‐2 = tested on: COX‐2; set-up: method as in PMID 824724; settings: measured in rabbit cell; cited from earlier work
[1] = at 100 μM, highest tested concentration
[2] = at 100 μM, highest tested concentration, mean ± SEM
[3] = SI = % inhibition COX‐2 / % inhibition COX‐1 at 100 µM

T1 sequence (P23219 24-599): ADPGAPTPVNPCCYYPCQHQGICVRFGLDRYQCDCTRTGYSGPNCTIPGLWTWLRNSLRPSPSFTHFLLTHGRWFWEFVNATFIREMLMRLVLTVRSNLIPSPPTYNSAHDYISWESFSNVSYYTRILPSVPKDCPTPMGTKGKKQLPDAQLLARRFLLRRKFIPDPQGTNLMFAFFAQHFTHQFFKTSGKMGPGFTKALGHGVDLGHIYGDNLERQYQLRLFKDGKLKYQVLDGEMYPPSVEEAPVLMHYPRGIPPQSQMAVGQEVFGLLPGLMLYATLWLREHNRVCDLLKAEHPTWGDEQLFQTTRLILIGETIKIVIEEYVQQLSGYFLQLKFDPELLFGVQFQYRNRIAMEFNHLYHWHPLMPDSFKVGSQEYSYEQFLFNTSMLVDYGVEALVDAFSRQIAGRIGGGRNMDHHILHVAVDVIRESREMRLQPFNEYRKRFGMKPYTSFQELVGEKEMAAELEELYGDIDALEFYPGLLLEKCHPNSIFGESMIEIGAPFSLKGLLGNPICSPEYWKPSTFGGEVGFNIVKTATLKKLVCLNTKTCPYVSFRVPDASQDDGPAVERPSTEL

Compound	inhibition at 100 µM (human recombinant COX‐1; [1]) [%]	inhibition at 100 µM (human recombinant COX‐2; [2]) [%]	other results
COc1ccc(/C=C/C(=O)c2c(OC)cc(OC)c(C(=O)/C=C/c3ccc(OC)cc3)c2OC)cc1 [Compound 11, (2E,2′E)−1,1′‐(2,4,6‐Trimethoxy‐1,3‐phenylene)bis[3‐(4‐methoxyphenyl)prop‐2‐en‐1‐one]]	< 30	< 30	–
COc1cc(/C=C/C(=O)c2c(OC)cc(OC)c(C(=O)/C=C/c3ccc(O)c(OC)c3)c2OC)ccc1O [Compound 13, (2E,2′E)−1,1′‐(2,4,6‐Trimethoxy‐1,3‐phenylene)bis[3‐(4‐hydroxy‐3‐methoxyphenyl)prop‐2‐en‐1‐one]]	–	–	IC50 (human recombinant COX‐1): 24 ± 3 µM; Selectivity index (SI) (human recombinant COX‐2; SI = IC50 COX‐1 / IC50 COX‐2): 4.4; IC50 (human recombinant COX‐2; mean ± SEM): 5.5 ± 0.7 µM
Cc1c(Cl)cccc1Nc1ccccc1C(=O)O [tolfenamic acid]	–	–	IC50 (COX‐2): 640 nM
COCOc1cc(OCOC)c(C(=O)/C=C/c2ccc(Br)cc2)c(OCOC)c1C(=O)/C=C/c1ccc(Br)cc1 [Compound 22, (2E,2′E)−1,1′‐[2,4,6‐Tris(methoxymethoxy)−1,3‐phenylene]bis(3‐(4‐bromophenyl)prop‐2‐en‐1‐one)]	< 30	< 30	–
COc1cc(OC)c(C(=O)/C=C/c2ccc(Br)cc2)c(OC)c1C(=O)/C=C/c1ccc(Br)cc1 [Compound 14, (2E,2′E)−1,1′‐(2,4,6‐Trimethoxy‐1,3‐phenylene)bis[3‐(4‐bromophenyl)prop‐2‐en‐1‐one]]	< 30	< 30	–
COc1cc(OC)c(C(=O)/C=C/c2ccc(O)cc2)c(OC)c1C(=O)/C=C/c1ccc(O)cc1 [Compound 12, (2E,2′E)−1,1′‐(2,4,6‐Trimethoxy‐1,3‐phenylene)bis[3‐(4‐hydroxyphenyl)prop‐2‐en‐1‐one]]	~50	~50	Selectivity index (SI) (human recombinant COX‐2; [3]): 0.9
COCOc1cc(OCOC)c(C(=O)/C=C/c2ccc(OC)c(OC)c2)c(OCOC)c1C(=O)/C=C/c1ccc(OC)c(OC)c1 [Compound 19, (2E,2′E)−1,1′‐[2,4,6‐Tris(methoxymethoxy)−1,3‐phenylene]bis[3‐(3,4‐dimethoxyphenyl)prop‐2‐en‐1‐one]]	< 30	< 30	–
COc1ccc(/C=C/C(=O)c2c(O)cc(O)c(C(=O)/C=C/c3ccc(OC)c(OC)c3)c2O)cc1OC [Compound 26, (2E,2′E)−1,1′‐(2,4,6‐Trihydroxy‐1,3‐phenylene)bis[3‐(3,4‐dimethoxyphenyl)prop‐2‐en‐1‐one]]	40 to 50	40 to 50	Selectivity index (SI) (human recombinant COX‐2; [3]): 0.8
COc1ccc(/C=C/C(=O)c2c(O)cc(O)c(C(=O)/C=C/c3ccc(OC)cc3)c2O)cc1 [Compound 27, (2E,2′E)−1,1′‐(2,4,6‐Trihydroxy‐1,3‐phenylene)bis[3‐(4‐methoxyphenyl)prop‐2‐en‐1‐one]]	–	–	IC50 (human recombinant COX‐1): 48 ± 2 µM; Selectivity index (SI) (human recombinant COX‐2; SI = IC50 COX‐1 / IC50 COX‐2): 1.2; IC50 (human recombinant COX‐2; mean ± SEM): 44 ± 3 µM
COCOc1ccc(/C=C/C(=O)c2c(OCOC)cc(OCOC)c(C(=O)/C=C/c3ccc(OCOC)c(OC)c3)c2OCOC)cc1OC [Compound 21, (2E,2′E)−1,1′‐[2,4,6‐Tris(methoxymethoxy)−1,3‐phenylene]bis{3‐[3‐methoxy‐4‐(methoxymethoxy)phenyl]prop‐2‐en‐1‐one}]	< 30	< 30	–
(2E,2′E)−1,1′‐{2,4,6‐Tris[(2‐methoxyethoxy)methoxy]−1,3‐phenylene}bis(3‐{3,4‐bis[(2‐methoxyethoxy)methoxy]phenyl}prop‐2‐en‐1‐one) [Compound 24]	–	–	COX‐1 Inhibition, % (human recombinant COX‐1; [1]): <30% ^100 μM; COX‐2 Inhibition, % (human recombinant COX‐2; [2]): <30% ^100 μM
COCOc1ccc(/C=C/C(=O)c2c(OCOC)cc(OCOC)c(C(=O)/C=C/c3ccc(OCOC)cc3)c2OCOC)cc1 [Compound 25, (2E,2′E)−1,1′‐[2,4,6‐Tris(methoxymethoxy)−1,3‐phenylene]bis{3‐[4‐(methoxymethoxy)phenyl]prop‐2‐en‐1‐one}]	< 30	< 30	–
COc1cc(/C=C/C(=O)c2c(O)cc(O)c(C(=O)/C=C/c3ccc(O)c(OC)c3)c2O)ccc1O [Compound 28, (2E,2′E)−1,1′‐(2,4,6‐Trihydroxy‐1,3‐phenylene)bis[3‐(4‐hydroxy‐3‐methoxyphenyl)prop‐2‐en‐1‐one]]	–	–	IC50 (human recombinant COX‐1): 37 ± 4 µM; Selectivity index (SI) (human recombinant COX‐2; SI = IC50 COX‐1 / IC50 COX‐2): 2.6; IC50 (human recombinant COX‐2; mean ± SEM): 14.6 ± 0.5 µM
COCOc1cc(OCOC)c(C(=O)/C=C/c2ccc(OC)cc2)c(OCOC)c1C(=O)/C=C/c1ccc(OC)cc1 [Compound 20, (2E,2′E)−1,1′‐[2,4,6‐Tris(methoxymethoxy)−1,3‐phenylene]bis[3‐(4‐methoxyphenyl)prop‐2‐en‐1‐one]]	< 30	< 30	–
O=C(/C=C/c1ccc(Br)cc1)c1c(O)cc(O)c(C(=O)/C=C/c2ccc(Br)cc2)c1O [Compound 29, (2E,2′E)−1,1′‐(2,4,6‐Trihydroxy‐1,3‐phenylene)bis[3‐(4‐bromophenyl)prop‐2‐en‐1‐one]]	40 to 50	40 to 50	Selectivity index (SI) (human recombinant COX‐2; [3]): 1.1; COX‐2 IC50, µM or Inhibition, % (human recombinant COX‐2; cell carries superscript 100 μM (highest tested concentration)): 58 ± 3 µM ^100 μM
COc1ccc(/C=C/C(=O)c2c(OC)cc(OC)c(C(=O)/C=C/c3ccc(OC)c(OC)c3)c2OC)cc1OC [Compound 10, (2E,2′E)−1,1′‐(2,4,6‐Trimethoxy‐1,3‐phenylene)bis[3‐(3,4‐dimethoxyphenyl)prop‐2‐en‐1‐one]]	< 30	< 30	–
COc1cc(OC)c(C(=O)/C=C/c2cccc(Cl)c2)c(OC)c1C(=O)/C=C/c1cccc(Cl)c1 [Compound 15, (2E,2′E)−1,1′‐(2,4,6‐Trimethoxy‐1,3‐phenylene)bis[3‐(3‐chlorophenyl)prop‐2‐en‐1‐one]]	< 30	< 30	–
